Data: patent publication US20130131161A1, “METHODS AND COMPOSITIONS FOR CARDIOVASCULAR DISEASES AND CONDITIONS” (priority 2009, published 2013)
Several values for one entry are separate records, joined by “and”; a condition that tells them apart may be missing. Identical values can stand only once.

Tested on: Human umbilical vein endothelial cells (HUVECs)
Assay: eNOS activity analysis: NO, ONOO− and NO/ONOO− release from HUVECs of 50 genotyped donors in response to LA-419 (Example 2)
Assay type: cell-based
Details: for Fold difference NO/ONOO− (mean ± sd) / Fold difference ONOO− (mean ± sd) / Fold difference NO (mean ± sd): Caucasian, (LA-419 5 μM)/(control); for % Change NO (mean ± sd) / % Change NO/ONOO− (mean ± sd) / % Change ONOO− (mean ± sd): LA-419 1 μM vs control
Procedure: Concurrent measurements of NO and ONOO^− were carried out with tandem electrochemical nanosensors combined into one working unit with a total diameter of 200-500 nm (FIG. 1). Their design was based on previously developed and well-characterized chemically modified carbon-fiber technology (Malinski and Taha, 1992; Lvovich and Scheeline, 1997). Each of the nanosensors was made by depositing a sensing material on the tip of a carbon fiber (length 4-5 μm, diameter 0.2-0.5 μm). The fibers were sealed with nonconductive epoxy and electrically connected to copper wires with conductive silver epoxy. A conductive film of polymeric nickel (II) tetrakis(3-methoxy-4-hydroxyphenyl)porphyrin for the NO-sensor and polymeric film of Mn (III) [2.2]paracyclophanylporphyrin was used for the ONOO^−-sensor.
A module of NO/ONOO^− nanosensors (diameter 1-2 μm) with a platinum wire (0.1 mm) counter electrode and saturated calomel reference electrode (SCE) were applied. Differential pulse voltammetry (DPV) and amperometry were performed with a computer-based Gamry VFP600 multichannel potentiostat. DPV was used to measure the basal NO and ONOO^− concentrations, and amperometry was used to measure changes in NO and ONOO^− concentrations from its basal level with time. The DPV current at the peak potential characteristic for NO oxidation (0.65 V) and ONOO^− reduction (−0.45 V) was directly proportional to the local concentrations of these compounds in the immediate vicinity of the sensor. Linear calibration curves (current vs. concentration) were constructed for each sensor from 10 nM to 3 μM before and after measurements with aliquots of NO and ONOO^− standard solutions, respectively. The detection limit of the sensors was 1.0 nM.
The quantification of each analyte (concentration in nM) was performed using a maximum current from amperograms and standard calibration curves. A reproducibility of measurements with nanosensors is relatively high (between 5-12%). […] The sensors were slowly raised 5±2 μm from the surface of a single endothelial cell. The eNOS agonist, calcium ionophore A23187 (CaI) as well as the different drugs were then added to the surrounding media at the cell surface with a nanoinjector that was also positioned by a computer controlled-micromanipulator.
This example describes the genotype-specific response of the three major eNOS variants to 1 μM and 5 μM concentrations of LA-419. The three major genetic polymorphisms studied were the Glu298Asp variant (E298D or 894G→T) in exon 7 of […], the −786T→C variant in the promoter region, and the intron 4 polymorphism (VNTR). All of these variants have possible effects on the cardiovascular system and endothelial dysfunction. For this study, human umbilical vein endothelial cells (HUVECs) from 50 donors between 18 and 32 years of age were used.
For the analysis several analysis techniques were employed. First, the effect of genotype on NO and ONOO^− release was explored within the different concentrations of LA-419 (control, 1 μM, 5 μM), calculated as the average peak release (nmols/L) of NO, ONOO^−, and NO/ONOO^−. The effect of genotype on the net increase in NO, ONOO^−, and NO/ONOO^− for LA-419 (1 μM and 5 μM) as compared to control was also measured. In addition, an analysis was done on the effect of genotype on the % change in NO, ONOO^−, and NO/ONOO^− production for LA-419 (1 μM and 5 μM), calculated as:
% Change=[(avg. LA-419−avg. control)/(avg. control)]*100
Finally, an evaluation was undertaken concerning the effect of genotype on the production of NO, ONOO^−, and NO/ONOO^− as the fold difference of control for LA-419 (1 μM and 5 μM), calculated as:
Fold Difference=(avg. LA-419)/(avg. control)
Within each calculation technique the results were compared for statistical significance using a non-parametric ANOVA Kruskal-Wallace test or a non-parametric Mann-Whitney U test. Statistical significance was set at a p-value <0.05 in a two-tailed distribution. […]

[1] = HUVEC donor Race Caucasian/Black

## CC(=O)SC1COC2C(O[N+](=O)[O-])COC12 (stereo not drawn) [LA-419, S-(6-Nitro-oxi-hexahydro-furo[3,2-b]furan-3-1-il)thioacetate]
G894T G/G, n=10
  Fold difference NO/ONOO− (mean ± sd): 1.47 (0.12)
  Fold difference ONOO− (mean ± sd): 0.81 (0.04)
G894T G/T & T/T, n=16
  Fold difference NO (mean ± sd): 1.11 (0.05)
  Fold difference NO/ONOO− (mean ± sd): 1.35 (0.10)
  Fold difference ONOO− (mean ± sd): 0.83 (0.07)
G894T G/T, n=13
  Fold difference NO (mean ± sd): 1.12 (0.05)
  Fold difference NO/ONOO− (mean ± sd): 1.34 (0.09)
  Fold difference ONOO− (mean ± sd): 0.83 (0.06)
G894T T/T, n=3
  Fold difference NO (mean ± sd): 1.11 (0.07)
  Fold difference NO/ONOO− (mean ± sd): 1.39 (0.17)
  Fold difference ONOO− (mean ± sd): 0.80 (0.12)
Intron 4 b/a & a/a, n=6
  Fold difference NO (mean ± sd): 1.16 (0.06)
  Fold difference NO/ONOO− (mean ± sd): 1.39 (0.11)
  Fold difference ONOO− (mean ± sd): 0.83 (0.05)
Intron 4 b/a, n=5
  Fold difference NO (mean ± sd): 1.16 (0.06)
  Fold difference NO/ONOO− (mean ± sd): 1.39 (0.12)
  Fold difference ONOO− (mean ± sd): 0.83 (0.05)
Intron 4 b/b, n=18
  Fold difference NO (mean ± sd): 1.13 (0.07)
  Fold difference NO/ONOO− (mean ± sd): 1.39 (0.13)
  Fold difference ONOO− (mean ± sd): 0.82 (0.06)
T-786C T/C & C/C, n=16
  Fold difference NO (mean ± sd): 1.12 (0.06)
  Fold difference NO/ONOO− (mean ± sd): 1.36 (0.10)
  Fold difference ONOO− (mean ± sd): 0.82 (0.06)
T-786C T/C, n=15
  Fold difference NO (mean ± sd): 1.13 (0.06)
  Fold difference NO/ONOO− (mean ± sd): 1.35 (0.09)
  Fold difference ONOO− (mean ± sd): 0.83 (0.04)
T-786C T/T, n=10
  Fold difference NO (mean ± sd): 1.17 (0.08)
  Fold difference NO/ONOO− (mean ± sd): 1.49 (0.14) and 1.45 (0.14)
  Fold difference ONOO− (mean ± sd): 0.82 (0.07)
LA-419 1 μM (Table c1)
  peak release of NO versus control: smaller increase
LA-419 1 μM (Table c2)
  ONOO− production versus control: no apparent decrease
[1]
  % Change NO (mean ± sd): 9.57 (6.43) %
  % Change NO/ONOO− (mean ± sd): 3.77 (26.27) %
  % Change ONOO− (mean ± sd): 9.37 (21.79) %
HUVEC donor Race Not Reported
  % Change NO (mean ± sd): 14.50 (2.19) %
  % Change NO/ONOO− (mean ± sd): 37.24 (1.75) %
  % Change ONOO− (mean ± sd): −16.55 (2.66) %
HUVEC donor alpha
  % Change NO (mean ± sd): −4.73 (18.81) %
  % Change NO/ONOO− (mean ± sd): −8.17 (36.37) %
  % Change ONOO− (mean ± sd): 16.25 (36.48) %
HUVEC donor beta
  % Change NO (mean ± sd): 21.25 (25.58) %
  % Change NO/ONOO− (mean ± sd): 61.80 (74.46) %
  % Change ONOO− (mean ± sd): −18.41 (17.30) %
HUVEC donor delta
  % Change NO (mean ± sd): 8.95 (0) %
  % Change NO/ONOO− (mean ± sd): 33.68 (0) %
  % Change ONOO− (mean ± sd): −18.50 (0) %
HUVEC donor gamma
  % Change NO (mean ± sd): 11.74 (17.99) %
  % Change NO/ONOO− (mean ± sd): 26.85 (45.85) %
  % Change ONOO− (mean ± sd): −6.29 (19.74) %
HUVECs G894T variant G/G
  % Change NO (mean ± sd): 7.77 (18.82) %
  % Change NO/ONOO− (mean ± sd): 21.83 (51.78) %
  % Change ONOO− (mean ± sd): −2.10 (27.33) %
HUVECs G894T variant G/T
  % Change NO (mean ± sd): 20.99 (29.98) %
  % Change NO/ONOO− (mean ± sd): 50.45 (77.28) %
  % Change ONOO− (mean ± sd): −9.58 (26.95) %
HUVECs G894T variant T/T
  % Change NO (mean ± sd): 8.69 (18.85) %
  % Change NO/ONOO− (mean ± sd): 61.97 (81.82) %
  % Change ONOO− (mean ± sd): −25.44 (21.34) %
HUVECs Intron 4 variant a/a
  % Change NO (mean ± sd): −4.57 (24.67) %
  % Change NO/ONOO− (mean ± sd): −3.62 (44.56) %
  % Change ONOO− (mean ± sd): 9.62 (33.98) %
HUVECs Intron 4 variant b/a
  % Change NO (mean ± sd): 20.51 (28.08) %
  % Change NO/ONOO− (mean ± sd): 42.92 (65.15) %
  % Change ONOO− (mean ± sd): −6.58 (30.92) %
HUVECs Intron 4 variant b/b
  % Change NO (mean ± sd): 13.46 (23.13) %
  % Change NO/ONOO− (mean ± sd): 43.27 (71.09) %
  % Change ONOO− (mean ± sd): −10.24 (27.17) %
HUVECs Intron 4 variant c/c
  % Change NO (mean ± sd): −26.76 (0) %
  % Change NO/ONOO− (mean ± sd): −26.15 (0) %
  % Change ONOO− (mean ± sd): −0.63 (0) %
HUVECs T-786C variant C/C
  % Change NO (mean ± sd): 1.91 (11.63) %
  % Change NO/ONOO− (mean ± sd): 2.52 (35.64) %
  % Change ONOO− (mean ± sd): 11.13 (43.85) %
HUVECs T-786C variant T/C
  % Change NO (mean ± sd): 17.70 (29.53) %
  % Change NO/ONOO− (mean ± sd): 52.82 (77.96) %
  % Change ONOO− (mean ± sd): −12.40 (28.22) %
HUVECs T-786C variant T/T
  % Change NO (mean ± sd): 9.48 (17.79) %
  % Change NO/ONOO− (mean ± sd): 25.48 (51.97) %
  % Change ONOO− (mean ± sd): −5.17 (21.75) %
LA-419 1 μM, HUVEC donor Race Asian
  % Change Ratio, % Change NO/% Change ONOO− (mean ± sd): −0.48 (0)
LA-419 1 μM, HUVEC donor Race Black
  % Change Ratio, % Change NO/% Change ONOO− (mean ± sd): 2.81 (12.60)
LA-419 1 μM, HUVEC donor Race Not Reported
  % Change Ratio, % Change NO/% Change ONOO− (mean ± sd): −0.90 (0.28)
LA-419 1 μM, HUVECs G894T + T-786C Combination of all genotypes other than G/G + T/T
  Net increase over control NO (mean ± sd): 38.70 (72.56) nmols/L
